Patent publication US11667602B2, “Compounds and their use” (AstraZeneca AB, priority 2020, dated 2023)
pEC50: −log10 of the molar value. In brackets after ≈: the same amount, converted by molar mass.

Assays:
[1] = Human Plasma Protein Binding (Test B); assay type: in vitro ADME; conditions: fraction unbound (fu)
Experimental: Human Plasma Protein Binding (Test B)
The assay was conducted according to the Human Plasma Protein Binding Assay described in pages 167-170 of Wernevik, J. et al., “A Fully Integrated Assay Panel for Early Drug Metabolism and Pharmacokinetics Profiling”, Assay and Drug Development Technologies, 2020, 18(4), 157-179. Data are reported in Table 36 as fraction unbound (fu) (% free). Where the assay was run multiple times for the same compound, the arithmetic mean is reported.

[2] = Human Liver Microsomal Stability (Test C); assay type: in vitro ADME; conditions: human, liver microsomes
How it was run: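 CLint (μl/min/mg protein) derived from compound depletion in human liver microsomes following a published standardized early-DMPK protocol; replicate determinations given as arithmetic mean.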

[3] = Rat Hepatocyte Stability (Test E); assay type: in vitro ADME; conditions: rat, hepatocytes, geometric mean if run multiple times
How it was run: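 Intrinsic clearance in rat hepatocytes, expressed as μl/min/10^6 cells, following the literature integrated DMPK panel method. Repeat determinations combined as geometric mean.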

Solubility (Test F) = assay type: physicochemical; conditions: arithmetic mean if run multiple times
Experimental: The assay was conducted according to the Solubility Assay described in pages 164-167 of Wernevik, J. et al., “A Fully Integrated Assay Panel for Early Drug Metabolism and Pharmacokinetics Profiling”, Assay and Drug Development Technologies, 2020, 18(4), 157-179. Data are reported in Table 36 as solubility ([…]. Where the assay was run multiple times for the same compound, the arithmetic mean is reported.

human RXFP1 = target: T1, human RXFP1 (Homo sapiens, UniProt Q9HBX9); experiment: RXFP1 Hu cAMP (Test A); assay type: cell-based; set-up: expressed in transfected cells; host or cells: Jump-In T-REx CHO-K1 cells (ThermoFisher), induced with 10 ng/ml doxycycline for 24 h; conditions: RXFP1 Hu cAMP; for pEC50: read-out: Test A EC50
T1 sequence (Q9HBX9 1-757): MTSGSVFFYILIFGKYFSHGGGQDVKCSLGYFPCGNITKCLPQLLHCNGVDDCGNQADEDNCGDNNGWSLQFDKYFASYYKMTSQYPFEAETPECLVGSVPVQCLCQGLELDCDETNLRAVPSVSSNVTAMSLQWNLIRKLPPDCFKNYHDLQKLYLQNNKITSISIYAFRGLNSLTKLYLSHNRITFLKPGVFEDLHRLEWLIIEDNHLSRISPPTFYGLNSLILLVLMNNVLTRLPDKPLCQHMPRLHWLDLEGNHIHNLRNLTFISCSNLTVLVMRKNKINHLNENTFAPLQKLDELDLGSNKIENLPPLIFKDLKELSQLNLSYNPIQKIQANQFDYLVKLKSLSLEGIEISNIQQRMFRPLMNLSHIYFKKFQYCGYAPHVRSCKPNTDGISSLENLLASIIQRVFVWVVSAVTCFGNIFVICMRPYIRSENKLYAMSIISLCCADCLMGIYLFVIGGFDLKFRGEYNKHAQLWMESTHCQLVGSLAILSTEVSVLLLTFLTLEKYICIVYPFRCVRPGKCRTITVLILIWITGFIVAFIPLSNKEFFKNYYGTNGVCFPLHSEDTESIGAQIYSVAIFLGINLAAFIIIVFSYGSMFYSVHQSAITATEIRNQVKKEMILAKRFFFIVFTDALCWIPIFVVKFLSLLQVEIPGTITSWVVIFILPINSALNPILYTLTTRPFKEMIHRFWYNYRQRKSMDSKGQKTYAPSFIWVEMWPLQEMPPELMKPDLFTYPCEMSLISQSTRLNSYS
How it was run: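 Competitive HTRF cAMP readout (2 h, room temperature) in CHO-K1 cells stably expressing human RXFP1, induced with 10 ng/ml doxycycline for 24 h; IBMX 0.5 mM final.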

Compound | Test B Human Plasma Protein Binding (% free) [1] | microsomal CLint [2] | hepatocyte CLint [3] | solubility (Solubility (Test F)) | pEC50 (human RXFP1) | Test A Sinf (human RXFP1)
COc1cc(C#N)c(O[C@H]2CC[C@@](C)(C(=O)O)CC2)cc1C(=O)N[C@@H]1[C@H]2CC[C@H](C2)[C@@H]1C(=O)NCC1CC1 [Example 71, (1S,4s)-4-(2-Cyano-5-(((1S,2R,3S,4R)-3-((cyclopropylmethyl)carbamoyl)bicyclo[2.2.1]heptan-2-yl)carbamoyl)-4-methoxyphenoxy)-1-methylcyclohexane-1-carboxylic acid] | 17 % free | < 3 µL/min/mg | 28 µL/min/1e6 cells | 940 µM (≈ 492 µg/mL) | 6.41 | 
COc1cc(F)c(O[C@H]2CC[C@@H](C(=O)O)CC2)cc1C(=O)N[C@@H]1[C@H]2CC[C@H](C2)[C@@H]1C(=O)Nc1ccc(C)c(C#N)c1 [Example 19] | 2.3 % free | 17 µL/min/mg | 93 µL/min/1e6 cells | 630 µM (≈ 355 µg/mL) | 6.33 | 97%
COc1cc(C#N)c(O[C@H]2CC[C@@](C)(C(=O)O)CC2)cc1C(=O)N[C@@H]1[C@H]2CC[C@H](C2)[C@@H]1C(=O)NCC1CCC(C#N)CC1 (stereo partly drawn) [Example 107] | 26 % free | 7.9 µL/min/mg | 34 µL/min/1e6 cells | 1000 µM (≈ 591 µg/mL) | 5.08 | 112%
COc1cc(F)c(-c2ccc(/C=C/C(=O)O)nc2)cc1C(=O)N[C@@H]1[C@H]2CC[C@H](C2)[C@@H]1C(=O)Nc1cccc(S(=O)(=O)C(F)(F)F)c1 [Example 260, (E)-3-(5-(2-Fluoro-4-methoxy-5-(((1S,2R,3S,4R)-3-((3-((trifluoromethyl)sulfonyl)phenyl)carbamoyl)bicyclo[2.2.1]heptan-2-yl)carbamoyl)phenyl)pyridin-2-yl)acrylic acid] | 0.57 % free | 69 µL/min/mg | 69 µL/min/1e6 cells | 360 µM (≈ 238 µg/mL) |  | 108%
COc1cc(F)c(O[C@H]2CC[C@@](C)(C(=O)O)CC2)cc1C(=O)N[C@@H]1[C@H]2CC[C@H](C2)[C@@H]1C(=O)N[C@@H](C)C(C)C [Example 42] | 5.4 % free | < 3 µL/min/mg | 19 µL/min/1e6 cells | > 1000 µM |  | 95%
COc1cc(F)c(O[C@H]2CC[C@@H](C(=O)O)CC2)cc1C(=O)N[C@@H]1[C@H]2CC[C@H](C2)[C@@H]1C(=O)Nc1cc(C(F)(F)F)ncn1 [Example 31] | 3.7 % free | 18 µL/min/mg | 13 µL/min/1e6 cells | 940 µM (≈ 559 µg/mL) | 6.12 | 81%
COc1cc(F)c(O[C@H]2CC[C@@H](C(=O)O)CC2)cc1C(=O)N[C@@H]1[C@H]2CC[C@H](C2)[C@@H]1C(=O)Nc1cc(C#N)cc(C(F)(F)F)c1 [Example 191, (1S,4s)-4-(5-(((1S,2R,3S,4R)-3-((3-Cyano-5-(trifluoromethyl)phenyl)carbamoyl)bicyclo[2.2.1]heptan-2-yl)carbamoyl)-2-fluoro-4-methoxyphenoxy)cyclohexane-1-carboxylic acid] | 1.1 % free | 20 µL/min/mg | 15 µL/min/1e6 cells | > 1000 µM | < 5.44 | 86%
COc1cc(F)c(O[C@H]2CC[C@@H](C(=O)O)CC2)cc1C(=O)N[C@@H]1[C@H]2CC[C@H](C2)[C@@H]1C(=O)NCCC1CC1 [Example 176] | 9.3 % free | 8 µL/min/mg | 120 µL/min/1e6 cells | 210 µM (≈ 108 µg/mL) | < 5.37 | 75%

Further lines, results first:

Test B Human Plasma Protein Binding (% free) [1] | microsomal CLint [2] | hepatocyte CLint [3] | solubility (Solubility (Test F)) | pEC50 (human RXFP1) | Test A Sinf (human RXFP1) | Compound
24 % free | < 3 µL/min/mg | 16 µL/min/1e6 cells | 920 µM (≈ 518 µg/mL) | 6.43 | 103% | COc1cc(C#N)c(O[C@H]2CC[C@@](C)(C(=O)O)CC2)cc1C(=O)N[C@@H]1[C@H]2CC[C@H](C2)[C@@H]1C(=O)NCC1(C#N)CCC1 [Example 93]
2.3 % free | 19 µL/min/mg | 12 µL/min/1e6 cells | 780 µM (≈ 519 µg/mL) | 6.89 | 97% | COc1cc(F)c(-c2cnc(NCC(=O)O)nc2)cc1C(=O)N[C@@H]1[C@H]2CC[C@H](C2)[C@@H]1C(=O)Nc1cccc(S(=O)(=O)C(F)(F)F)c1 [Example 240]
0.37 % free | 48 µL/min/mg | 83 µL/min/1e6 cells | 270 µM (≈ 176 µg/mL) | 6.70 | 108% | COc1cc(F)c(O[C@H]2CC[C@@H](C(=O)O)CC2)cc1C(=O)N[C@@H]1[C@H]2CC[C@H](C2)[C@@H]1C(=O)Nc1cccc(I)c1 [Example 185]
3.7 % free | 37 µL/min/mg | 47 µL/min/1e6 cells | > 1000 µM | 7.72 | 99% | COc1cc(C#N)c(O[C@H]2CC[C@@H](C(=O)O)CC2)cc1C(=O)N[C@@H]1[C@H]2CC[C@H](C2)[C@@H]1C(=O)Nc1cccc(S(=O)(=O)C(F)(F)F)c1 [Example 467, (1S,4s)-4-(2-Cyano-4-methoxy-5-(((1S,2R,3S,4R)-3-((3-((trifluoromethyl)sulfonyl)phenyl)carbamoyl)bicyclo[2.2.1]heptan-2-yl)carbamoyl)phenoxy)cyclohexane-1-carboxylic acid]
7.6 % free | 12 µL/min/mg | 12 µL/min/1e6 cells | 380 µM (≈ 202 µg/mL) | 7.15 | 104% | COc1cc(F)c(O[C@H]2CC[C@@](C)(C(=O)O)CC2)cc1C(=O)N[C@@H]1[C@H]2CC[C@H](C2)[C@@H]1C(=O)N[C@H](C)C(C)C [Example 46]
0.30 % free | 31 µL/min/mg | 12 µL/min/1e6 cells | > 1000 µM | 7.47 | 114% | COc1cc(F)c(-c2ccc3c(c2)OC[C@@H]3CC(=O)O)cc1C(=O)N[C@@H]1[C@H]2CC[C@H](C2)[C@@H]1C(=O)Nc1cccc(S(=O)(=O)C(F)(F)F)c1 [Example 254]
0.93 % free | 29 µL/min/mg | 61 µL/min/1e6 cells | > 1000 µM | 7.21 | 105% | COc1cc(F)c(O[C@H]2CC[C@@H](C(=O)O)CC2)cc1C(=O)N[C@@H]1[C@H]2CC[C@H](C2)[C@@H]1C(=O)Nc1cccc(C(F)(F)F)c1 [Example 193]
<0.32 % free | 24 µL/min/mg | 8.8 µL/min/1e6 cells | > 1000 µM | 7.51 | 102% | COc1cc(F)c(-c2ccc3c(c2)OC[C@H]3CC(=O)O)cc1C(=O)N[C@@H]1[C@H]2CC[C@H](C2)[C@@H]1C(=O)Nc1cccc(S(=O)(=O)C(F)(F)F)c1 [Example 253]
2.5 % free | > 300 µL/min/mg | 48 µL/min/1e6 cells | 220 µM (≈ 131 µg/mL) | 8.32 | 125% | COc1cc(C#N)c(O[C@H]2CC[C@@](C)(C(=O)O)CC2)cc1C(=O)N[C@@H]1[C@H]2CC[C@H](C2)[C@@H]1C(=O)NCC1(C)CCCCCC1 [Example 105]
